According to patent US20120316184A1, “NOVEL MICROBICIDES” (SYNGENTA CROP PROTECTION LLC, priority 2010, published 2012):

Columns and labels:
Phytophthora infestans = format: in vivo; conditions: 200 ppm; tomato leaf disks, inoculated 1 day after application, assessed 5-7 days after application, vs untreated
[1] = test system: Mycosphaerella arachidis (Cercospora arachidicola); experiment: Fungicidal activity against Mycosphaerella arachidis (Cercospora arachidicola) / liquid culture (early leaf spot); format: cell-based; conditions: liquid culture (PDB), inhibition of growth determined photometrically 4-5 days after application, read-out: disease control
Description: (§1) Fungicidal Activity Against Mycosphaerella arachidis (Cercospora arachidicola)/Liquid Culture (Early Leaf Spot) Conidia of the fungus from cryogenic storage were directly mixed into nutrient broth (PDB potato dextrose broth). After placing a (DMSO) solution of test compound into a microtiter plate (96-well format), the nutrient broth containing the fungal spores was added. The test plates were incubated at 24° C. and the inhibition of growth was determined photometrically 4-5 days after application.

[2] = test system: Phaeosphaeria nodorum (Septoria nodorum); experiment: Fungicidal activity against Phaeosphaeria nodorum (Septoria nodorum) / wheat / leaf disc preventative (glume blotch); format: in vivo; conditions: Parastagonospora nodorum, foliar, wheat leaf segments cv. Kanzler, inoculated 2 days after application, assessed 5-7 days after application, vs untreated, read-out: disease control
Description: Fungicidal Activity Against Phaeosphaeria nodorum (Septoria nodorum)/Wheat/Leaf Disc Preventative (Glume Blotch) Wheat leaf segments cv. Kanzler were placed on agar in a multiwell plate (24-well format) and sprayed with the formulated test compound diluted in water. The leaf disks were inoculated with a spore suspension of the fungus 2 days after application. The inoculated test leaf disks were incubated at 20° C. and 75% rh under a light regime of 12 h light/12 h darkness in a climate cabinet and the activity of a compound was assessed as percent disease control compared to untreated when an appropriate level of disease damage appears in untreated check leaf disks (5-7 days after application).

[3] = test system: Puccinia recondita f. sp. tritici; experiment: Fungicidal activity against Puccinia recondita f. sp. tritici / wheat / leaf disc preventative (brown rust); format: in vivo; conditions: foliar, wheat leaf segments cv. Kanzler, inoculated 1 day after application, assessed 7-9 days after application, vs untreated, read-out: disease control
Description: Fungicidal Activity Against Puccinia recondita f. sp. tritici/Wheat/Leaf Disc Preventative (Brown Rust) Wheat leaf segments cv. Kanzler were placed on agar in multiwell plates (24-well format) and sprayed with the formulated test compound diluted in water. The leaf disks were inoculated with a spore suspension of the fungus 1 day after application. The inoculated leaf segments were incubated at 19° C. and 75% rh under a light regime of 12 h light/12 h darkness in a climate cabinet and the activity of a compound was assessed as percent disease control compared to untreated when an appropriate level of disease damage appears in untreated check leaf segments (7-9 days after application).

[4] = test system: Monographella nivalis (Microdochium nivale); experiment: Fungicidal activity against Monographella nivalis (Microdochium nivale) / liquid culture (foot rot cereals); format: cell-based; conditions: liquid culture (PDB), inhibition of growth determined photometrically 4-5 days after application, read-out: disease control
Description: as §1, with “Monographella nivalis (Microdochium nivale)/Liquid” for “Mycosphaerella arachidis (Cercospora arachidicola)/Liquid”, “(Foot Rot Cereals)” for “(Early Leaf Spot)”

[5] = test system: Mycosphaerella graminicola (Septoria tritici); experiment: Fungicidal activity against Mycosphaerella graminicola (Septoria tritici) / liquid culture (Septoria blotch); format: cell-based; conditions: Zymoseptoria tritici, liquid culture (PDB), inhibition of growth determined photometrically 4-5 days after application, read-out: disease control
Description: as §1, with “graminicola (Septoria tritici)/Liquid” for “arachidis (Cercospora arachidicola)/Liquid”, “(Septoria Blotch)” for “(Early Leaf Spot)”

Gaeumannomyces graminis = experiment: Fungicidal activity against Gaeumannomyces graminis / liquid culture (take-all of cereals); format: cell-based; conditions: liquid culture (PDB), inhibition of growth determined photometrically 4-5 days after application, read-out: disease control
Description: as §1, with “Against Gaeumannomyces graminis/Liquid” for “Against Mycosphaerella arachidis (Cercospora arachidicola)/Liquid”, “Culture (Take-all of Cereals) Mycelial fragments” for “Culture (Early Leaf Spot) Conidia”, “spores is” for “spores was”

[6] = test system: Glomerella lagenarium (Colletotrichum lagenarium); experiment: Fungicidal activity against Glomerella lagenarium (Colletotrichum lagenarium) / liquid culture (anthracnose); format: cell-based; conditions: Colletotrichum orbiculare, liquid culture (PDB), inhibition of growth measured photometrically 3-4 days after application, read-out: disease control
Description: as §1, with “Glomerella lagenarium (Colletotrichum lagenarium)/Liquid” for “Mycosphaerella arachidis (Cercospora arachidicola)/Liquid”, “(Anthracnose)” for “(Early Leaf Spot)”, “measured” for “determined”, “3-4” for “4-5”

[7] = test system: Botryotinia fuckeliana (Botrytis cinerea); experiment: Fungicidal activity against Botryotinia fuckeliana (Botrytis cinerea) / liquid culture (gray mould); format: cell-based; conditions: liquid culture (Vogels broth), inhibition of growth determined photometrically 3-4 days after application, read-out: disease control
Description: as §1, with “Botryotinia fuckeliana (Botrytis cinerea)/Liquid” for “Mycosphaerella arachidis (Cercospora arachidicola)/Liquid”, “(Gray Mould)” for “(Early Leaf Spot)”, “(Vogels” for “(PDB potato dextrose”, “3-4” for “4-5”

Pyrenophora teres = experiment: Fungicidal activity against Pyrenophora teres / barley / leaf disc preventative (net blotch); format: in vivo; conditions: foliar, barley leaf segments cv. Hasso, inoculated 2 days after application, assessed 5-7 days after application, vs untreated, read-out: disease control
Description: Fungicidal Activity Against Pyrenophora teres/Barley/Leaf Disc Preventative (Net Blotch) Barley leaf segments cv. Hasso were placed on agar in a multiwell plate (24-well format) and sprayed with the formulated test compound diluted in water. The leaf […] inoculated with a spore suspension of the fungus 2 days after application. The inoculated leaf segments were incubated at 20° C. and 65% rh under a light regime of 12 h light/12 h darkness in a climate cabinet and the activity of a compound was assessed as disease control compared to untreated when an appropriate level of disease damage appears in untreated check leaf segments (5-7 days after application).

| Compound | disease control (Phytophthora infestans) | inhibition of growth at 200 ppm [1] [%] | pest or weed control at 200 ppm [2] [%] | pest or weed control at 200 ppm [3] [%] | inhibition of growth at 200 ppm [4] [%] | inhibition of growth at 200 ppm [5] [%] | inhibition of growth at 200 ppm (Gaeumannomyces graminis) [%] | inhibition of growth at 200 ppm [6] [%] | inhibition of growth at 200 ppm [7] [%] | pest or weed control at 200 ppm (Pyrenophora teres) [%] |
| --- | --- | --- | --- | --- | --- | --- | --- | --- | --- | --- |
| c1ccc(Cc2cccc(-c3ncc4ccsc4n3)n2)cc1 [Compound T3.1.31, 2-(6-benzyl-pyridin-2-yl)-thieno[2,3-d]pyrimidine] | at least 80% | – | – | – | – | – | – | – | – | – |
| Clc1nc(-c2cccc(Cc3ccccc3)n2)nc2sccc12 [Compound T3.1.33, 2-(6-benzyl-pyridin-2-yl)-4-chloro-thieno[2,3-d]pyrimidine] | – | ≥ 80 | ≥ 80 | ≥ 80 | ≥ 80 | ≥ 80 | ≥ 80 | ≥ 80 | – | – |
| COc1nc(-c2cccc(Cc3ccccc3)n2)nc2sccc12 [Compound T3.1.35, 2-(6-benzyl-pyridin-2-yl)-4-methoxy-thieno[2,3-d]pyrimidine] | – | ≥ 80 | ≥ 80 | – | ≥ 80 | ≥ 80 | ≥ 80 | ≥ 80 | – | – |
| Cc1ccc(-c2ncc3cccnc3n2)nc1-c1ccccc1 [Compound T10.1.6, 2-(5-methyl-6-phenyl-pyridin-2-yl)-pyrido[2,3-d]pyrimidine] | – | ≥ 80 | ≥ 80 | ≥ 80 | ≥ 80 | ≥ 80 | ≥ 80 | ≥ 80 | ≥ 80 | ≥ 80 |
| CCOc1nc(-c2cccc(Cc3ccccc3)n2)nc2sccc12 [Compound T15.1] | – | ≥ 80 | – | ≥ 80 | ≥ 80 | ≥ 80 | ≥ 80 | ≥ 80 | – | – |
| c1ccc(Cc2cccc(-c3ncc4c5c(sc4n3)CCC5)n2)cc1 [Compound T15.2] | – | ≥ 80 | – | – | – | – | ≥ 80 | – | – | – |
| Cc1sc2nc(-c3cccc(Cc4ccccc4)n3)ncc2c1C [Compound T15.4] | – | ≥ 80 | – | – | ≥ 80 | – | ≥ 80 | – | ≥ 80 | ≥ 80 |
| Cc1cc(F)ccc1-c1cccc(-c2nc(O)c3ccsc3n2)n1 [Compound T15.5] | – | – | – | – | – | – | ≥ 80 | – | ≥ 80 | – |
| Cc1ccc(C)c(-c2cccc(-c3nc(O)c4ccsc4n3)n2)c1 [Compound T15.7] | – | – | – | – | ≥ 80 | – | ≥ 80 | – | – | – |
| COc1nc(-c2cccc(-c3cc(C)ccc3C)n2)nc2sccc12 [Compound T15.8] | – | ≥ 80 | – | – | – | ≥ 80 | ≥ 80 | – | – | ≥ 80 |
| COc1nc(-c2cccc(C#CC3CC3)n2)nc2sccc12 [Compound T15.9] | – | ≥ 80 | – | – | ≥ 80 | – | ≥ 80 | – | – | – |
| Cc1cccc(-c2nc(-c3ccccc3)c3ncccc3n2)n1 [Compound T15.10] | – | ≥ 80 | ≥ 80 | ≥ 80 | – | ≥ 80 | ≥ 80 | ≥ 80 | ≥ 80 | ≥ 80 |
| COc1cccc(-c2nc(-c3cccc(C)n3)nc3sccc23)c1 [Compound T15.11] | – | ≥ 80 | ≥ 80 | ≥ 80 | ≥ 80 | ≥ 80 | ≥ 80 | ≥ 80 | ≥ 80 | ≥ 80 |
| Cc1cccc(-c2nc(-c3cccc(C)n3)nc3sccc23)c1 [Compound T15.12] | – | ≥ 80 | ≥ 80 | ≥ 80 | ≥ 80 | ≥ 80 | ≥ 80 | ≥ 80 | ≥ 80 | ≥ 80 |
| Cc1cccc(-c2nc(-c3ccccc3C)c3ccsc3n2)n1 [Compound T15.13] | – | ≥ 80 | ≥ 80 | – | – | ≥ 80 | ≥ 80 | ≥ 80 | ≥ 80 | – |
| Cc1cccc(-c2nc(-c3ccccc3Cl)c3ccsc3n2)n1 [Compound T15.14] | – | ≥ 80 | ≥ 80 | – | – | ≥ 80 | ≥ 80 | ≥ 80 | ≥ 80 | ≥ 80 |
| Cc1cccc(-c2nc(-c3ccc(Cl)cc3)c3ccsc3n2)n1 [Compound T15.15] | – | ≥ 80 | ≥ 80 | ≥ 80 | ≥ 80 | ≥ 80 | ≥ 80 | ≥ 80 | ≥ 80 | ≥ 80 |
| c1ccc(Cc2cccc(-c3ncc4ccsc4n3)n2)cc1 [Compound T15.16] | – | ≥ 80 | ≥ 80 | ≥ 80 | ≥ 80 | ≥ 80 | ≥ 80 | ≥ 80 | ≥ 80 | ≥ 80 |
